Experimental data published in US8946209B2, “Compositions and methods for treating and preventing urolithiasis and conditions associated therewith” (OptMed, Inc., priority 2009, dated 2015).

Key:
[1] = tested on: rat ureteral smooth muscle; assay: Relaxant effect of diazepam on EFS-induced contraction of rat ureteral muscle strips (Example 3); assay type: cell-based, Wistar rats
Experimental: (§1) Ureteral muscle rings obtained from women undergoing nephrectomy or ureteral muscle strips harvested from adult male Wistar rats (n=8 samples of each) were mounted in 5 mL organ baths containing Krebs-Henseleit solution. The organ baths were kept at 37±1° C. and continuously aerated with 95% O2-5% CO2. After 60 minutes of equilibration, smooth muscle samples were exposed to 80 or 30 mM KCl (human and rat, respectively) to assess their viability. After washout and 30 additional minutes of equilibration, electrical field stimulation (EFS) was started. […] Time-matched controls were obtained exposing tissues to a solution of drug vehicle without diazepam (DMSO in distilled water). At the end of the experiment, the maximal relaxant capacities of each tissue were determined by exposure to 10 μM forskolin.

[2] = tested on: human ureteral smooth muscle; assay: Relaxant effect of diazepam on EFS-induced contraction of human ureteral muscle rings (Example 3); assay type: cell-based
Experimental: as §1

Question: For `CN1C(=O)CN=C(c2ccccc2)c2cc(Cl)ccc21` [diazepam, 7-chloro-1,3-dihydro-1-methyl-5-phenyl-2H-1,4-benzodiazepin-2-one], which Emax ([1]; read-out: maximal relaxant effect (Emax), of the basal response to EFS) is on record?
Answer: The Emax was 67.4 ± 5%.

Question: And the IC50 ([1]; read-out: pIC50 for inhibition of EFS-induced contraction (converted))?
Answer: The IC50 was 1120 nM.

Question: What about the Emax ([2]; Homo sapiens, read-out: maximal relaxant effect (Emax), of the basal response to EFS) of the same molecule?
Answer: The Emax was 98.4 ± 0.2%.

Question: What about the IC50 ([2]; Homo sapiens, read-out: pIC50 for inhibition of EFS-induced contraction (converted)) of the same molecule?
Answer: The IC50 was 4470 nM.

Question: And the “restoration of baseline EFS-induced contractility after washout” value ([2]; human ureter, following total inhibition of tissue contraction by diazepam)?
Answer: The value was “restored after 3 washouts”.
